# According to paper PMC12179616, “Novel and efficient synthesis of 5-chloro-6-methoxy-3-(2-((1-(aryl)-1H-1,2,3-triazol-4-yl)methoxy)ethyl)benzo[d]isoxazole derivatives as new α-glucosidase inhibitors” (Biochemistry and Biophysics Reports, 2025):
# Where “and” joins values, the source holds several entries; their conditions need not be identical. Equal values may be shown once.
# Experiments:
# [1] = system: Bacillus cereus (MTCC2128); assay: Antibacterial activity, agar well diffusion; format: cell-based; settings: for zone of inhibition / inhibition in words: 25 μl
# Protocol: (§1) The antibacterial activity was determined by using the agar well diffusion method [[50], [51], [52]]. Two bacterial strains were used to evaluate the antibacterial efficacy of the synthesized compounds: one Gram-positive strain, Bacillus cereus (MTCC2128), and one Gram-negative strain, Escherichia coli (MTCC2412). Sterilized Mueller Hinton Broth (MHB) was used to cultivate the bacterial strains, and the mixture was incubated for 18 h at 37 °C. To evaluate the antibacterial activity, the inhibition zone (RIZ) radius encircled each well was determined in millimeters. The experiments were carried out duplicates. The incubation period for the plates was from 72 to 96 h at a temperature of 37 °C. The zone of inhibition was then looked for on the plates.
# [2] = system: Escherichia coli (MTCC2412); assay: Antibacterial activity, agar well diffusion; format: cell-based
# Protocol: as §1
# [3] = target: α-glucosidase; settings: Fig. 1; cited from earlier work
Compound,zone of inhibition [1],inhibition in words [1],further results
"COc1cc2onc(CCOCc3cn(-c4cccc(Cl)c4)nn3)c2cc1Cl [Compound 9c, 5-Chloro-3-(2-((1-(3-chlorophenyl)-1H-1,2,3-triazol-4-yl)methoxy)ethyl)-6-methoxybenzo[d]isoxazole]",0.4 mm,–,–
"COc1cc2onc(CCOCc3cn(-c4ccccc4C)nn3)c2cc1Cl [Compound 9f, 5-Chloro-6-methoxy-3-(2-((1-(o-tolyl)-1H-1,2,3-triazol-4-yl)methoxy)ethyl)benzo[d] isoxazole]",0.5 mm,–,antibacterial activity in words [1]: showed antibacterial activity
"COc1cc2onc(CCOCc3cn(-c4ccccc4OC)nn3)c2cc1Cl [Compound 9g, 5-Chloro-6-methoxy-3-(2-((1-(2-methoxyphenyl)-1H-1,2,3-triazol-4-yl)methoxy)ethyl) benzo[d]isoxazole]",–,–,zone of inhibition ([2]; 75 μl): 0.9 mm; zone of inhibition ([2]; 100 μl): 1.2 mm
"COc1ccc(-n2cc(COCCc3noc4cc(OC)c(Cl)cc34)nn2)cc1 [Compound 9h, 5-Chloro-6-methoxy-3-(2-((1-(4-methoxyphenyl)-1H-1,2,3-triazol-4-yl)methoxy)ethyl) benzo[d]isoxazole]",0.5 mm,–,antibacterial activity in words [1]: showed antibacterial activity
"COc1cc2onc(CCOCc3cn(-c4ccc(Br)c(F)c4)nn3)c2cc1Cl [Compound 9i, 3-(2-((1-(4-Bromo-3-fluorophenyl)-1H-1,2,3-triazol-4-yl)methoxy)ethyl)-5-chloro-6-methoxybenzo[d]isoxazole]",–,moderate inhibition,–
"COc1cc2onc(CCOCc3cn(-c4ccc(F)cc4)nn3)c2cc1Cl [Compound 9j, 5-Chloro-3-(2-((1-(4-fluorophenyl)-1H-1,2,3-triazol-4-yl)methoxy)ethyl)-6-methoxy benzo[d]isoxazole]",–,moderate inhibition,–
"COc1cc2onc(CCOCc3cn(-c4ccccc4C(F)(F)F)nn3)c2cc1Cl [Compound 9k, 5-Chloro-6-methoxy-3-(2-((1-(2-(trifluoromethyl)phenyl)-1H-1,2,3-triazol-4-yl)methoxy)ethyl)benzo[d]isoxazole]",–,moderate inhibition,–
"COc1cc2onc(CCOCc3cn(-c4ccc(C(F)(F)F)cc4)nn3)c2cc1Cl [Compound 9l, 5-chloro-6-methoxy-3-(2-((1-(4-(trifluoromethyl)phenyl)-1H-1,2,3-triazol-4-yl)methoxy)ethyl)benzo[d]isoxazole]",0.5 mm and 0.4 mm,–,antibacterial activity in words [1]: showed antibacterial activity
"COc1cc2onc(CCOCc3cn(-c4ccc(C)c(C)c4)nn3)c2cc1Cl [Compound 9m, 5-Chloro-3-(2-((1-(3,4-dimethylphenyl)-1H-1,2,3-triazol-4-yl)methoxy)ethyl)-6-methoxy benzo[d]isoxazole]",–,moderate inhibition,–
"COc1cc2onc(CCOCc3cn(-c4ccc(Br)cc4)nn3)c2cc1Cl [Compound 9n, 3-(2-((1-(4-Bromophenyl)-1H-1,2,3-triazol-4-yl)methoxy)ethyl)-5-chloro-6-methoxy benzo[d]isoxazole]",–,moderate inhibition,–
"COc1cc2onc(CCOCc3cn(-c4ccc(Br)c(C(F)(F)F)c4)nn3)c2cc1Cl [Compound 9o, 3-(2-((1-(4-Bromo-3-(trifluoromethyl)phenyl)-1H-1,2,3-triazol-4-yl)methoxy)ethyl)-5-chloro-6-methoxybenzo[d]isoxazole]",–,moderate inhibition,–
O=C1Nc2ccccc2/C1=N/N=C/c1ccc(OCc2cn(Cc3ccccc3F)nn2)cc1 [III],–,–,IC50 [3]: 16.4 µM
O=c1oc2ccccc2c(O)c1C(c1ccc(OCc2cn(-c3ccccc3Cl)nn2)cc1)c1c(O)c2ccccc2oc1=O [I],–,–,IC50 [3]: 13 µM
